Data from patent US20030078274A1, “Method of reducing neuronal injury or apoptosis” (priority 1999, published 2003).

Experiments:
[1] = tested on: neurons in rat cerebrocortical cultures (SDF-1-induced apoptosis); test: SDF-1-induced neuronal apoptosis in rat cerebrocortical cultures; format: cell-based, Sprague-Dawley rats; details: p38 MAPK inhibition by SB 203580, FIG. 4(B)
Procedure: The model used in the assays described below, i.e., rat cerebrocortical cultures, was prepared from embryos of Sprague-Dawley rats at day 15 to 17 of gestation. See Lei et al., Neuron 8:1087-1099 (1992) and Lipton et al., Nature 364:626-632 (1993). Cultures were used for experiments after 17 to 24 days in culture. These cultures contain neurons, astrocytes, and macrophages/microglia, as determined with specific immunolabeling. Prior to some experiments, macrophages/microglia or neurons were depleted from the cultures by exposure to 7.5 mM L-leucine methyl ester or 2 mM N-methyl-D-aspartate (NMDA), respectively. See Lipton, NeuroReport 3:913-915 (1992). Absence of macrophages/microglia or neurons in these cultures was confirmed immunocytochemically, using antibodies to ED-1 and microtubule-associated protein-2 (MAP-2), respectively. In some experiments, the Griess reaction was used to measure nitrite levels in the culture medium as an index of nitric oxide (NO) release. See Chao et al., Glia 16:276-284 (1996). […]
Neuronal apoptosis in the above-described assays was assessed using a variety of techniques, e.g., staining of permeabilized cells with propidium iodide to determine apoptotic morphology, and a neuron-specific antibody (against NeuN or MAP-2) to identify cell type. […]

cultured RGCs = test: NMDA-induced apoptosis in cultured RGCs; format: cell-based, Long-Evans rats; details: 1 μM; 300 μM NMDA/5 μM glycine for 18 hr
Procedure: Retinal cell cultures. Retinal cells were prepared from 6-10 day old Long-Evans rats as described in Leifer et al., Science 224:303-306 (1984). Briefly, following dissociation in papain, retinal cells were plated on poly-L-lysine-coated glass coverslips in Eagle's minimum essential medium. RGCs were identified by immunocytochemical staining using an anti-Thy-1 antibody (2G12), which is specific among rat retinal cells for the ganglion cells.
Assessment of NMDA-induced apoptosis in cultured RGCs. To induce predominantly apoptosis (See Bonfoco et al., Proc. Natl. Acad. Sci. USA 92:7162-7166 (1995); Dreyer et al., Neuroreport 6:942-944 (1995)), retinal cell cultures were exposed to 300 μM NMDA/5 μM glycine for 18 hr in high calcium (3 mM) medium. For specific labeling of RGCs, the cultures were incubated with anti-Thy-1 antibody for 1 hr. Following 3 washes with PBS, cells were incubated in goat-anti-mouse-IgG-FITC for 1 hr. For assessment of apoptosis, retinal cells were fixed, permeabilized and stained with 20 μg/ml propidium iodide for 5 min, as described in Ankarcrona et al., Neuron 15:961-973 (1995). Briefly, coverslips containing the cells were washed once with PBS and permeabilized with 85% methanol for 10 min. […] Apoptotic nuclei were scored in cells that were also stained by anti-Thy-1, and expressed as a fraction of total RGCs.

[2] = tested on: neurons in rat cerebrocortical cultures (gp120-induced apoptosis); test: gp120-induced neuronal apoptosis in rat cerebrocortical cultures; format: cell-based, Sprague-Dawley rats; details: SB 203580 10 μM, applied 15 min before gp120
Procedure: The model used in the assays described below, i.e., rat cerebrocortical cultures, was prepared from embryos of Sprague-Dawley rats at day 15 to 17 of gestation. See Lei et al., Neuron 8:1087-1099 (1992) and Lipton et al., Nature 364:626-632 (1993). Cultures were used for experiments after 17 to 24 days in culture. […] Prior to some experiments, macrophages/microglia or neurons were depleted from the cultures by exposure to 7.5 mM L-leucine methyl ester or 2 mM N-methyl-D-aspartate (NMDA), respectively. See Lipton, NeuroReport 3:913-915 (1992). […] In some experiments, the Griess reaction was used to measure nitrite levels in the culture medium as an index of nitric oxide (NO) release. See Chao et al., Glia 16:276-284 (1996).
Cultures were transferred into Earle's Balanced Salt Solution (EBSS) and incubated for 24 hours with gp120, chemokines, Tuftsin fragment 1-3, i.e., Thr-Lys-Pro (TKP), p38 MAPK inhibitor SB 203580 (i.e., 4-(4-fluorophenyl)-2-(4-methylsulfinylphenyl)-5-(4-pyridyl)imidazole, Calbiochem, San Diego, Calif.), or combinations thereof. Chemokines or TKP were applied for 5 minutes and SB 203580 for 15 minutes prior to gp120 exposure.
TKP was obtained from Sigma (St. Louis, Mo.). Recombinant human MIP-1β, SDF-1α, SDF-1β, and recombinant rat RANTES were purchased from R&D systems ([…].) and Endogen (Woburn, Mass.), respectively. HIV-1 envelope glycoprotein gp120 from the strain SF2 was obtained from the NIH AIDS Research and Reference Reagent Program, Division of AIDS, NIAID, NIH. See Scandella et al., AIDS Res. Hum. Retroviruses 9:1233-1244 (1993). Additional gp120s from HIV-1 strains IIIB and RF2 were obtained from Genetech and the National Cancer Institute, respectively. TNFα, IFNγ, and IL-1β were from Genzyme (Cambridge, Mass.), Gibco BRL (Grand Island, N.Y.) and Endogen (Woburn, Mass.), respectively.
Neuronal apoptosis in the above-described assays was assessed using a variety of techniques, e.g., staining of permeabilized cells with propidium iodide to determine apoptotic morphology, and a neuron-specific antibody (against NeuN or MAP-2) to identify cell type. In brief, cells were fixed for 5 minutes with ice-cold acetone at −20° C. and, after three washes in PBS, for 4 minutes with 2% (w/v) paraformaldehyde solution in PBS at room temperature (RT). Acetone-paraformaldehyde-fixed cells were permeabilized using 0.2% Tween 20 in PBS (PBST), and non-specific binding sites were blocked by incubation for 1 hour with a 10% solution of heat-inactivated goat serum in PBST. To specifically stain neurons, cells were then incubated for 4 hours at RT or overnight at 4° C. with 1:500 dilutions of anti-MAP-2 (Sigma) or anti-NeuN monoclonal antibody (mAb; Chemicon, Temecula, Calif.). Their respective non-specific isotype antibodies served as controls. After three washes, the cells were incubated in a secondary polyclonal antibody (pAb) conjugated either to fluorescein isothiocyanate (FITC) or to horseradish peroxidase (HRP). In the case of HRP-coupled pAb, diaminobenzidine (DAB) served as the color substrate developed by incubation in a mixture of 1 mg/ml DAB and 0.8% H2O2 at a ratio of 3:1. Cellular nuclei were subsequently stained with […] propidium iodide for 5 minutes in the dark, and then coverslips were mounted on glass slides. Experiments were replicated at least 3 times with triplicate values in each experiment. Statistical significance was judged by an analysis of variance (ANOVA) followed by a Scheffé or Bonferroni/Dunn post hoc test.

SMILES: C[S+]([O-])c1ccc(-c2nc(-c3ccc(F)cc3)c(-c3ccncc3)[nH]2)cc1 (stereo not drawn) [SB 203580, 4-(4-fluorophenyl)-2-(4-methylsulfinylphenyl)-5-(4-pyridyl)-1H-imidazole]
- effect on SDF-1 neurotoxicity (SDF-1β-induced neuronal apoptosis) [1]: ameliorated
- survival of RGCs in the face of NMDA exposure (cultured RGCs): significantly increased
- effect on gp120SF2-induced neuronal apoptosis [2]: substantially attenuated
